Results reported in patent US9708334B2, “Substituted 2,4,5,6-tetrahydropyrrolo[3,4-c]pyrazole and 4,5,6,7-tetrahydro-2H-pyrazolo[4,3-c]pyridine compounds as GlyT1 inhibitors” (DART NEUROSCIENCE (CAYMAN) LTD., priority 2014, dated 2017).

Target: T1, GlyT1 (Homo sapiens, UniProt P48067)
T1 construct: expressed in transfected cells
T1 sequence (P48067 1-706): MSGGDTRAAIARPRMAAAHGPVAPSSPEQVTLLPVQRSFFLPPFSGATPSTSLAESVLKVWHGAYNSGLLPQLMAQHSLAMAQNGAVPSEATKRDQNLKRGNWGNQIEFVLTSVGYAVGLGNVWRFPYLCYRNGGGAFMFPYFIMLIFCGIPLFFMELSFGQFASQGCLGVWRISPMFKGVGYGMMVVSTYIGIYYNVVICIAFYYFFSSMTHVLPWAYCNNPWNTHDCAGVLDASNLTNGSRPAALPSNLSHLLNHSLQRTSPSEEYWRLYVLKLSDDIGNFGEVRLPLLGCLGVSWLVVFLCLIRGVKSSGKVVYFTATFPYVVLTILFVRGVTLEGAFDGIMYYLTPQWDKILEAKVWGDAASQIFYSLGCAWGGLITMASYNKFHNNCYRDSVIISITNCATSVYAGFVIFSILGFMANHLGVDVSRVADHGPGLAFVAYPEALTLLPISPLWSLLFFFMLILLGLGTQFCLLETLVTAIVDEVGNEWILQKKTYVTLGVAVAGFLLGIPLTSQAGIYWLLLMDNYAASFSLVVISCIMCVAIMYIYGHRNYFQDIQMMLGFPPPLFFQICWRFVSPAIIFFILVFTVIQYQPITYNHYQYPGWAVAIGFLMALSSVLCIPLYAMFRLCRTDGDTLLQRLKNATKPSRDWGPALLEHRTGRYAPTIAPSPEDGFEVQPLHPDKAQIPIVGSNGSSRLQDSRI
Assay: Glycine Transporter 1 (GlyT1) uptake assay, scintillation proximity assay of [14C]-glycine uptake
Assay type: cell-based
Settings: SPA, four parameter logistic fit, read-out: GlyT1 (pIC50) (converted)
Method in brief: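 [14C]-glycine uptake read by scintillation proximity on a plate counter. IC50 from four-parameter logistic fit of dose-response data.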

**Q.** Which IC50 does the source give for `C[C@H](Oc1ccc(C#N)cc1C(=O)N1Cc2cnn(CC(C)(C)F)c2C1)C(F)(F)F` [Example 379, 3-[1-(2-Fluoro-2-methylpropyl)-1H 4H 5H 6H-pyrrolo[3,4-c]pyrazole-5-carbonyl]-4-{[(2S)-1 1 1-trifluoropropan-2-yl]oxy}benzonitrile] here?
**A.** The IC50 was greater than 10000 nM.

**Q.** `Cc1cc(-n2cc3c(n2)CN(C(=O)c2cc(C#N)ccc2O[C@@H](C)C(F)(F)F)C3)cc(C)n1` [Example 380, 3-[2-(2 6-Dimethylpyridin-4-yl)-2H 4H 5H 6H-pyrrolo[3,4-c]pyrazole-5-carbonyl]-4-{[(2S)-1 1 1-trifluoropropan-2-yl]oxy}benzonitrile] was tested. Which IC50 did it give?
**A.** The IC50 was less than 100 nM.

**Q.** How did the IC50 turn out when `Cc1cc(-n2cc3c(n2)CN(C(=O)c2cc(C#N)ccc2OC(C)C)C3)cc(C)n1` [Example 381, 3-[2-(2 6-Dimethylpyridin-4-yl)-2H 4H 5H 6H-pyrrolo[3,4-c]pyrazole-5-carbonyl]-4-(propan-2-yloxy)benzonitrile] was run?
**A.** Its IC50 is less than 100 nM.

**Q.** Which IC50 does the source give for `C[C@H](Oc1ccc(C#N)cc1C(=O)N1Cc2cn(Cc3ccccc3)nc2C1)C(F)(F)F` [Example 382] here?
**A.** Its IC50 is 100 to 1000 nM.

**Q.** For `C[C@H](Oc1ccc(C#N)cc1C(=O)N1Cc2cnn(Cc3ccccc3)c2C1)C(F)(F)F` [Example 383], which IC50 is on record?
**A.** Its IC50 is 1000 to 10000 nM.

**Q.** `CC(C)n1ncc2c1CN(C(=O)c1cc(C#N)ccc1O[C@@H](C)C(F)(F)F)C2` [Example 384, 3-[1-(Propan-2-yl)-1H 4H 5H 6H-pyrrolo[3,4-e]pyrazole-5-carbonyl]-4-{[(2S)-1 1 1-trifluoropropan-2-yl]oxy}benzonitrile] was tested. Which IC50 did it give?
**A.** The IC50 was 1000 to 10000 nM.

**Q.** `CC(C)n1cc2c(n1)CN(C(=O)c1cc(C#N)ccc1O[C@@H](C)C(F)(F)F)C2` [Example 385, 3-[2-(Propan-2-yl)-2H 4H 5H 6H-pyrrolo[3,4-c]pyrazole-5-carbonyl]-4-{[(2 S)-1 1 1-trifluoropropan-2-yl]oxy}benzonitrile] was tested. Which IC50 did it give?
**A.** Its IC50 is 1000 to 10000 nM.

**Q.** How did the IC50 turn out when `CC(C)Cn1cc2c(n1)CN(C(=O)c1cc(C#N)ccc1O[C@@H](C)C(F)(F)F)C2` [Example 386, 3-[2-(2-Methylpropyl)-2H 4H 5H 6H-pyrrolo[3,4-c]pyrazole-5-carbonyl]-4-{[(2S)-1 1 1-trifluoropropan-2-yl]oxy}benzonitrile] was run?
**A.** Its IC50 is 100 to 1000 nM.

**Q.** With `CC(C)Cn1ncc2c1CN(C(=O)c1cc(C#N)ccc1O[C@@H](C)C(F)(F)F)C2` [Example 387, 3-[1-(2-Methylpropyl)-1H 4H 5H 6H-pyrrolo[3,4-c]pyrazole-5-carbonyl]-4-{[(2S)-1 1 1-trifluoropropan-2-yl]oxy}benzonitrile] as the compound, how does the IC50 read?
**A.** Its IC50 is greater than 10000 nM.

**Q.** Which IC50 does the source give for `C[C@H](Oc1ccc(C#N)cc1C(=O)N1Cc2cnn(C3CCCC3)c2C1)C(F)(F)F` [Example 388, 3-{1-Cyclopentyl-1H 4H 5H 6H-pyrrolo[3,4-c]pyrazole-5-carbonyl}-4-{[(2 S)-1 1 1-trifluoropropan-2-yl]oxy}benzonitrile] here?
**A.** Its IC50 is 1000 to 10000 nM.

**Q.** How did the IC50 turn out when `C[C@H](Oc1ccc(C#N)cc1C(=O)N1Cc2cn(C3CCCC3)nc2C1)C(F)(F)F` [Example 389, 3-{2-Cyclopentyl-2H 4H 5H 6H-pyrrolo[3,4-c]pyrazole-5-carbonyl}-4-{[(2S)-1 1 1-trifluoropropan-2-yl]oxy}benzonitrile] was run?
**A.** The IC50 was 100 to 1000 nM.

**Q.** With `CC(C)Oc1ccc(C#N)cc1C(=O)N1Cc2cn(-c3ccc(F)cc3F)nc2C1` [Example 390, 3-[2-(2 4-Difluorophenyl)-2H 4H 5H 6H-pyrrolo[3,4-c]pyrazole-5-carbonyl]-4-(propan-2-yloxy)benzonitrile] as the compound, how does the IC50 read?
**A.** Its IC50 is 100 to 1000 nM.

**Q.** How did the IC50 turn out when `C[C@H](Oc1ccc(C#N)cc1C(=O)N1Cc2cn(-c3ccc(F)cc3F)nc2C1)C(F)(F)F` [Example 391, 3-[2-(2 4-Difluorophenyl)-2H 4H 5H 6H-pyrrolo[3,4-c]pyrazole-5-carbonyl]-4-{[(2S)-1 1 1-trifluoropropan-2-yl]oxy}benzonitrile] was run?
**A.** Its IC50 is 100 to 1000 nM.

**Q.** `COCCCn1ncc2c1CN(C(=O)c1cc(C#N)ccc1O[C@@H](C)C(F)(F)F)C2` [Example 392, 3-[1-(3-Methoxypropyl)-1H 4H 5H 6H-pyrrolo[3,4-c]pyrazole-5-carbonyl]-4-{[(2S)-1 1 1-trifluoropropan-2-yl]oxy}benzonitrile] was tested. Which IC50 did it give?
**A.** The IC50 was greater than 10000 nM.

**Q.** Which IC50 does the source give for `COCCCn1cc2c(n1)CN(C(=O)c1cc(C#N)ccc1O[C@@H](C)C(F)(F)F)C2` [Example 393, 3-[2-(3-Methoxypropyl)-2H 4H 5H 6H-pyrrolo[3,4-c]pyrazole-5-carbonyl]-4-{[(2S)-1 1 1-trifluoropropan-2-yl]oxy}benzonitrile] here?
**A.** Its IC50 is 100 to 1000 nM.

**Q.** With `C[C@H](Oc1ccc(C#N)cc1C(=O)N1Cc2cnn(CC3CCOCC3)c2C1)C(F)(F)F` [Example 394, 3-[1-(Oxan-4-ylmethyl)-1H 4H 5H 6H-pyrrolo[3,4-c]pyrazole-5-carbonyl]-4-{[(2S)-1 1 1-trifluoropropan-2-yl]oxy}benzonitrile] as the compound, how does the IC50 read?
**A.** The IC50 was 1000 to 10000 nM.

**Q.** Which IC50 does the source give for `Cc1cccc(-n2cc3c(n2)CN(C(=O)c2cc(C#N)ccc2O[C@@H](C)C(F)(F)F)C3)c1F` [Example 395] here?
**A.** Its IC50 is 100 to 1000 nM.

**Q.** How did the IC50 turn out when `C[C@H](Oc1ccc(C#N)cc1C(=O)N1Cc2cn(CC3CCOCC3)nc2C1)C(F)(F)F` [Example 396, 3-[2-(Oxan-4-ylmethyl)-2H 4H 5H 6H-pyrrolo[3,4-c]pyrazole-5-carbonyl]-4-{[(2S)-1 1 1-trifluoropropan-2-yl]oxy}benzonitrile] was run?
**A.** Its IC50 is 100 to 1000 nM.

**Q.** `C[C@H](Oc1ccc(C#N)cc1C(=O)N1Cc2cn(-c3ccccc3F)nc2C1)C(F)(F)F` [Example 397, 3-[2-(2-Fluorophenyl)-2H 4H 5H 6H-pyrrolo[3,4-c]pyrazole-5-carbonyl]-4-{[(2S)-1 1 1-trifluoropropan-2-yl]oxy}benzonitrile] was tested. Which IC50 did it give?
**A.** Its IC50 is less than 100 nM.

**Q.** How did the IC50 turn out when `C[C@H](Oc1ccc(S(C)(=O)=O)cc1C(=O)N1Cc2cn(Cc3ccccc3)nc2C1)C(F)(F)F` [Example 398, 2-Benzyl-5-(5-methanesulfonyl-2-{[(2S)-1 1 1-trifluoropropan-2-yl]oxy}benzoyl)-2H 4H 5H 6H-pyrrolo[3,4-c]pyrazole] was run?
**A.** Its IC50 is less than 100 nM.

**Q.** With `CC(C)Cn1cc2c(n1)CN(C(=O)c1cc(S(C)(=O)=O)ccc1O[C@@H](C)C(F)(F)F)C2` [Example 399, 5-(5-Methanesulfonyl-2-{[(2S)-1 1 1-trifluoropropan-2-yl]oxy}benzoyl)-2-(2-methylpropyl)-2H 4H 5H 6H-pyrrolo[3,4-c]pyrazole] as the compound, how does the IC50 read?
**A.** Its IC50 is less than 100 nM.

**Q.** Which IC50 does the source give for `CC(C)Cn1cc2c(n1)CN(C(=O)c1cc(S(C)(=O)=O)ccc1OC(C)C)C2` [Example 400, 5-[5-Methanesulfonyl-2-(propan-2-yloxy)benzoyl]-2-(2-methylpropyl)-2H 4H 5H 6H-pyrrolo[3,4-c]pyrazole] here?
**A.** The IC50 was less than 100 nM.

**Q.** With `C[C@H](Oc1ccc(C#N)cc1C(=O)N1Cc2cn(CC3CCC3)nc2C1)C(F)(F)F` [Example 401, 3-[2-(Cyclobutylmethyl)-2H 4H 5H 6H-pyrrolo[3,4-c]pyrazole-5-carbonyl]-4-{[(2S)-1 1 1-trifluoropropan-2-yl]oxy}benzonitrile] as the compound, how does the IC50 read?
**A.** The IC50 was 100 to 1000 nM.

**Q.** For `C[C@H](Oc1ccc(C#N)cc1C(=O)N1Cc2cn(C3CCCCC3)nc2C1)C(F)(F)F` [Example 402, 3-{2-Cyclohexyl-2H 4H 5H 6H-pyrrolo[3,4-c]pyrazole-5-carbonyl}-4-{[(2S)-1 1 1-trifluoropropan-2-yl]oxy}benzonitrile], which IC50 is on record?
**A.** The IC50 was 100 to 1000 nM.

**Q.** For `CC(C)Oc1ccc(S(C)(=O)=O)cc1C(=O)N1Cc2cn(C3CCCCC3)nc2C1` [Example 403, 2-Cyclohexyl-5-[5-methanesulfonyl-2-(propan-2-yloxy)benzoyl]-2H 4H 5H 6H-pyrrolo[3,4-c]pyrazole], which IC50 is on record?
**A.** Its IC50 is less than 100 nM.

**Q.** With `C[C@H](Oc1ccc(C#N)cc1C(=O)N1Cc2cn(-c3ccnc(C4CC4)c3)nc2C1)C(F)(F)F` [Example 404, 3-[2-(2-Cyclopropylpyridin-4-yl)-2H 4H 5H 6H-pyrrolo[3,4-c]pyrazole-5-carbonyl]-4-{[(2S)-1 1 1-trifluoropropan-2-yl]oxy}benzonitrile] as the compound, how does the IC50 read?
**A.** Its IC50 is less than 100 nM.

**Q.** Which IC50 does the source give for `CC(C)Oc1ccc(C#N)cc1C(=O)N1Cc2cn(-c3ccnc(C4CC4)c3)nc2C1` [Example 405, 3-[2-(2-Cyclopropylpyridin-4-yl)-2H 4H 5H 6H-pyrrolo[3,4-c]pyrazole-5-carbonyl]-4-(propan-2-yloxy)benzonitrile] here?
**A.** Its IC50 is less than 100 nM.

**Q.** For `CC(C)Oc1ccc(S(C)(=O)=O)cc1C(=O)N1Cc2cn(C3CCCC3)nc2C1` [Example 406, 2-Cyclopentyl-5-[5-methanesulfonyl-2-(propan-2-yloxy)benzoyl]-2H 4H 5H 6H-pyrrolo[3,4-c]pyrazole], which IC50 is on record?
**A.** Its IC50 is less than 100 nM.

**Q.** With `CC(C)Oc1ccc(C#N)cc1C(=O)N1Cc2cn(C3CCOCC3)nc2C1` [Example 408, 3-[2-(Oxan-4-yl)-2H 4H 5H 6H-pyrrolo[3,4-c]pyrazole-5-carbonyl]-4-(propan-2-yloxy)benzonitrile] as the compound, how does the IC50 read?
**A.** The IC50 was 100 to 1000 nM.

**Q.** `C[C@H](Oc1ccc(S(C)(=O)=O)cc1C(=O)N1Cc2cn(CC3CCC3)nc2C1)C(F)(F)F` [Example 409] was tested. Which IC50 did it give?
**A.** The IC50 was less than 100 nM.

**Q.** With `CC(C)Oc1ccc(S(C)(=O)=O)cc1C(=O)N1Cc2cn(CC3CCC3)nc2C1` [Example 410, 2-(Cyclobutylmethyl)-5-[5-methanesulfonyl-2-(propan-2-yloxy)benzoyl]-2H 4H 5H 6H-pyrrolo[3,4-c]pyrazole] as the compound, how does the IC50 read?
**A.** Its IC50 is less than 100 nM.
